Laboratory results reported in patent US7579471B2, “Tropane derivatives useful in therapy” (Pfizer, Inc., priority 2002, dated 2009).
Read-outs that look alike come from different tables or passages of the source.

Molecular target: CCR5 receptors (Homo sapiens, UniProt P51681)
Experiment: inhibition of binding of HIV envelope protein (gp120) to CCR5 receptors
Conditions: procedure of Example 1 of EP 1 118 858 A2
Text: Biol., 60, 147-52 (1996); by using the intracellular calcium mobilisation assays as described by the same authors; and by their ability to inhibit binding of HIV envelope protein (gp120) to CCR5 receptors according to the procedure described in Example 1 of EP 1 118 858 A2 (pp 85-88). Cell lines expressing the receptor of interest include those naturally expressing the receptor, such as PM-1, or IL-2 stimulated peripheral blood lymphocytes (PBL), or a cell engineered to express a recombinant receptor, such as CHO, 300.19, L1.2 or HEK-293.
The ability of the compounds of formula (I) to inhibit binding of HIV envelope protein (gp120) to CCR5 receptors was determined by the procedure described in Example 1 of EP 1 118 858 A2.

[1] = IC50, inhibition of binding of HIV envelope protein (gp120) to CCR5 receptors

Sequence of CCR5 receptors (P51681 whole entry): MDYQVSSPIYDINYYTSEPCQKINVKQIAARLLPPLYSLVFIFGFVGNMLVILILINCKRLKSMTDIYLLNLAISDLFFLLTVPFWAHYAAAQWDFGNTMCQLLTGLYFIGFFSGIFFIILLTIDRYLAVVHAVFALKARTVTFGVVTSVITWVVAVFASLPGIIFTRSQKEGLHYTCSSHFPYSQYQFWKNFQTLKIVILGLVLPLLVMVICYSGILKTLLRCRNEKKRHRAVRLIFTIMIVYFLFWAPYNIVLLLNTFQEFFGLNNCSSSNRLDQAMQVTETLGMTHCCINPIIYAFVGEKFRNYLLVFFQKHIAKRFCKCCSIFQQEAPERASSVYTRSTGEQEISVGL

Row | SMILES | IC50 [1] | IC50 (read-out: IC50, inhibition of binding of HIV envelope protein (gp120) to CCR5 receptors)
1 | CC(=O)N[C@@H](CCN1C2CCC1CC(n1c(C)nc3c1CN(C(=O)C(C)C)CC3)C2)c1ccccc1 (stereo partly drawn) [Example 9, N-{(1S)-3-[3-endo-(5-Isobutyryl-2-methyl-4,5,6,7-tetrahydro-3H-imidazo[4,5-c]pyridin-3-yl)-8-azabicyclo[3.2.1]oct-8-yl]-1-phenylpropyl}acetamide] | 7 nM | 
2 | COC(=O)N[C@@H](CCN1C2CCC1CC(n1c(C)nc3c1CN(C(C)=O)CC3)C2)c1cccc(F)c1 (stereo partly drawn) [Example 17, Methyl (1S)-3-[3-endo-(5-acetyl-2-methyl-4,5,6,7-tetrahydro-3H-imidazo[4,5-c]pyridin-3-yl)-8-azabicyclo[3.2.1]oct-8-yl]-1-(3-fluorophenyl)propylcarbamate] | 15 nM | 
3 | COC(=O)N[C@@H](CCN1C2CCC1CC(n1c(C)nc3c1CCN(C(=O)OC)C3)C2)c1ccccc1 (stereo partly drawn) [Example 30, Methyl 1-endo-(8-{(3S)-3-[(methoxycarbonyl)amino]-3-phenylpropyl}-8-azabicyclo[3.2.1]oct-3-yl)-2-methyl-4,5,6,7-tetrahydro-1H-imidazo[4,5-c]pyridine-5-carboxylate] |  | 7 nM
4 | COC(=O)N1CCc2c(nc(C)n2C2CC3CCC(C2)N3CC[C@H](NC(C)=O)c2cccc(F)c2)C1 (stereo partly drawn) [Example 33, Methyl 1-endo-{8-[(3S)-3-(acetylamino)-3-(3-fluorophenyl)propyl]-8-azabicyclo[3.2.1]oct-3-yl}-2-methyl-4,5,6,7-tetrahydro-1H-imidazo[4,5-c]pyridine-5-carboxylate] | 23 nM | 
5 | COC(=O)N1CCc2c(nc(C)n2C2CC3CCC(C2)N3CC[C@H](NC(C)=O)c2cccc(F)c2)C1 (stereo partly drawn) [Example 44, Methyl 1-endo-{8-[(3S)-3-(acetamido)-3-(3-fluorophenyl)propyl]-8-azabicyclo[3.2.1]oct-3-yl}-2-methyl-4,5,6,7-tetrahydro-1H-imidazo[4,5-c]pyridine-5-carboxylate monohydrate] | 14 nM | 
